Patent publication US20150344540A1, “NOVEL GLP-1 RECEPTOR AGONISTS WITH CHOLESTEROL EFFLUX ACTIVITY” (NOVO NORDISK A/S, priority 2012, published 2015)

Experiments:
[1] = test system: Mouse monocyte/macrophage cell line, RAW 264.7; experiment: Cholesterol efflux assay (3H-cholesterol, macrophage cell line); format: cell-based; details: RAW 264.7, 4 hrs incubation, 0.1% human serum albumin, ABCA1-mediated efflux
[2] = Physical stability assay, dynamic light scattering; format: physicochemical
Excerpt: Physical stability can be assessed by dynamic and static light scattering. In dynamic light scattering, microsecond fluctuations in scattered laser light incident on a aqueous sample is detected and transformed into diffusion coefficients (Df) of the individual species via the so-called autocorrelation function. For convenience, the diffusion coefficients are typically reported in hydrodynamic radii (Rh) assuming the sample to consist of spherical species. Furthermore, from the radii, an empirical estimate of the molecular weight is obtained. Dynamic light scattering is extremely sensitive and can resolve very small amounts of aggregated species that are undesirable in pharmaceutical formulations. The average, static intensity recorded by the detector also serves as an overall measure of the physical stability of the sample as development of larger species increase the scattered intensity drastically. In order to measure the physical stability of peptides, DLS was applied to aqueous solutions of peptides. Measurements were performed on a Wyatt (Santa Barbara, Calif.) DynaPro DLS plate reader at 25° C., and samples were kept at 37° C. between measurements. Samples were measured for up to two weeks. Measurements were performed in […] triplicate in Corning 3540 384-well microtiter plates (Corning, N.Y.) sealed with transparent plastic foil (Thermo Fischer Scientific, Waltham, Mass.) with twenty 10-second acquisitions per measurement. Autocorrelation curves were fitted with a regularization fit in Dynamics 7.1.7.16 and the resulting diffusion coefficients were transformed into hydrodynamic radii and molecular mass assuming a spherical shape (Table 2). Normalized intensities are reported as is.
Judging from the autocorrelation functions and the normalized static intensity, only minute amounts of aggregate were present at any time independent of sample concentration.

pH solubility assay = format: physicochemical; design: unit not given here; details: two days at 25° C.
Description: One approach is to make a pH gradient from a buffer mix consisting of two buffers (e.g. citrate 100 mM/phosphate 200 mM), spike with a concentrated sample stock, and then leave the samples for 2 days at ambient temperature. […] Samples were incubated for two days at 25° C., centrifuged at 4700 g, and the concentration measured in the supernatant on a Nanodrop UV spectrophotometer (Thermo Fischer Scientific, Waltham, Mass.) using a theoretical extinction coefficient of 6,990 cm^−1M^−1.

db/db mice = experiment: Antidiabetic effect (acute blood glucose) in db/db mice; format: in vivo, male db/db (C57B1/KS db/db) mice
Description: The mice, 48 male db/db (C57B1/KS db/db), were purchased from Taconic, arriving at Novo Nordisk A/S Animal Unit at 6 weeks of age. The mice were housed according to standard rules in the animal unit and given free access to standard chow and tap water. The animals were kept at a room temperature of 22-24° C. and housed in groups of 5 mice, with free access to food and water, according to Animal Unit's SOP (Housing of experimental animals at Novo Nordisk A/S).
Test compound was administered as a single dose s.c.
Blood glucose was measured in a 5 μl full blood sample taken from the tip of the tail by puncturing the capillary bed with a lancet, using a 5 μl heparinised capillary tube to sample the blood. The capillary tube was then shaken into 2500 μl glucose/lactate System Solution and measured in a Biosen S_Line, autoanalyser (EKF Diagnostics GmbH, Magdeburg, Germany) according to the manufacturer's instructions. The samples were kept at room temperature until analysis. If analysis was postponed, samples were kept at 4° C. for a maximum of 24 h. The blood samples were taken at the following time points: 0, 30, 60, 120, 180 and 240 minutes and again at 24 h. After the 24 h sample, the blood was sampled from cheek or eye blood for drug exposure measurement in EDTA coated tubes. 50 μl plasma was pipetted from each animal for analysis in an in house immunoassay developed for GLP-1 analogues.

[3] = Pharmacokinetics in normal mice after i.v. and s.c. administration; format: in vivo, female C57B1/6J mice
Description: The mice, 60 female C57B1/6J were purchased from Taconic, arriving at Novo Nordisk A/S Animal Unit at 6-7 weeks of age. The mice were housed according to standard rules in the animal unit and given free access to standard chow and tap water. The animals were kept at a room temperature and housed in groups of 8 mice, with free access to food and water, according to Animal Unit's SOP (Housing of experimental animals at Novo Nordisk A/S).
Peptide is administered as a single dose either s.c. or i.v.
After the 2nd sample the mice were sacrificed. The plasma concentrations of the compounds with intact N-terminus were determined using a Luminescence Oxygen Chanelling Immuno-assay (LOCI). The donor beads were coated with streptavidin, while acceptor beads were conjugated with a monoclonal antibody recognizing a mid-/C-terminal epitope of the peptide. The other monoclonal antibody, specific for the N-terminus, was biotinylated. The three reactants were combined with the analyte and formed a two-sited immuno-complex. Illumination of the complex released singlet oxygen atoms from the donor beads, which were channeled into the acceptor beads and triggered chemiluminescence which was measured in an Envision plate reader. The amount of light was proportional to the concentration of the compound.

[4] = female, C57B1/6J, mouse, plasma, sc

CC[C@H](C)[C@H](NC(=O)[C@H](Cc1ccccc1)NC(=O)[C@H](CCC(=O)O)NC(=O)[C@H](CCCCN)NC(=O)[C@@H](NC(=O)[C@H](C)NC(=O)[C@H](CCC(=O)O)NC(=O)CNC(=O)[C@H](CCC(=O)O)NC(=O)[C@H](CC(C)C)NC(=O)[C@H](Cc1ccc(O)cc1)NC(=O)[C@H](CO)NC(=O)[C@H](CO)NC(=O)[C@@H](NC(=O)[C@H](CC(=O)O)NC(=O)[C@H](CO)NC(=O)[C@@H](NC(=O)[C@H](Cc1ccccc1)NC(=O)[C@@H](NC(=O)CNC(=O)[C@H](CCC(=O)O)NC(=O)C(C)(C)NC(=O)[C@@H](N)Cc1c[nH]cn1)[C@@H](C)O)[C@@H](C)O)C(C)C)C(C)C)C(=O)N[C@@H](C)C(=O)N[C@@H](Cc1c[nH]c2ccccc12)C(=O)N[C@@H](CC(C)C)C(=O)N[C@H](C(=O)N[C@@H](CCC(=O)O)C(=O)N[C@@H](CCCCN)C(=O)NC(C)(C)C(=O)N[C@@H](CCCCN)C(=O)N[C@@H](CCC(=O)O)C(=O)N[C@@H](Cc1ccccc1)C(=O)N[C@@H](CC(C)C)C(N)=O)C(C)C [Compound 1, [Aib8,Glu23,Val25,Glu34,Lys35,Aib36,Lys37]-GLP-1-(7-37)-peptidyl-Glu-Phe-Leu amide]
4 h Cholesterol Efflux Emax [1]: 100% | Inorm avg. ([2]; 0.9 mg/mL, 37° C., t 0 days): 1.15E+06 kcts | Rh avg. ([2]; 0.9 mg/mL, 37° C., t 0 days): 2.32 nm | Inorm avg. ([2]; 0.9 mg/mL, 37° C., t 1 days): 1.48E+06 kcts | Rh avg. ([2]; 0.9 mg/mL, 37° C., t 1 days): 2.31 nm | Inorm avg. ([2]; 0.9 mg/mL, 37° C., t 4 days): 3.76E+06 kcts | Rh avg. ([2]; 0.9 mg/mL, 37° C., t 4 days): 1.94 nm | Inorm avg. ([2]; 0.9 mg/mL, 37° C., t 8 days): 1.27E+06 kcts | Rh avg. ([2]; 0.9 mg/mL, 37° C., t 8 days): 2.26 nm | Inorm avg. ([2]; 0.9 mg/mL, 37° C., t 13 days): 2.25E+06 kcts | Rh avg. ([2]; 0.9 mg/mL, 37° C., t 13 days): 2.44 nm | oligomer size (molecular weight consistent with number of monomers) ([2]; 20 mM phosphate pH 7.5 buffer, 0.9 mg/mL or 45.5 mg/mL): approximately 4 monomers | oligomer stability by DLS ([2]; 20 mM phosphate pH 7.5 buffer, 0.9 mg/mL or 45.5 mg/mL, 37° C., up to two weeks): remained stable throughout the sample period | Inorm avg. ([2]; 45.5 mg/mL, 37° C., t 0 days): 8.33E+06 kcts | Rh avg. ([2]; 45.5 mg/mL, 37° C., t 0 days): 2.13 nm | Inorm avg. ([2]; 45.5 mg/mL, 37° C., t 1 days): 9.29E+06 kcts | Rh avg. ([2]; 45.5 mg/mL, 37° C., t 1 days): 2.27 nm | Inorm avg. ([2]; 45.5 mg/mL, 37° C., t 4 days): 1.04E+07 kcts | Rh avg. ([2]; 45.5 mg/mL, 37° C., t 4 days): 2.27 nm | Inorm avg. ([2]; 45.5 mg/mL, 37° C., t 6 days): 6.55E+06 kcts | Rh avg. ([2]; 45.5 mg/mL, 37° C., t 6 days): 2.35 nm | Inorm avg. ([2]; 45.5 mg/mL, 37° C., t 14 days): 7.18E+06 kcts | Rh avg. ([2]; 45.5 mg/mL, 37° C., t 14 days): 2.28 nm | Conc. supernatant (pH solubility assay; pH meas. 4.15, citrate 100 mM/phosphate 200 mM): 0.009 | Conc. supernatant (pH solubility assay; pH meas. 4.50, citrate 100 mM/phosphate 200 mM): 0.002 | Conc. supernatant (pH solubility assay; pH meas. 4.95, citrate 100 mM/phosphate 200 mM): 0.005 | Conc. supernatant (pH solubility assay; pH meas. 5.29, citrate 100 mM/phosphate 200 mM): 0.021 | Conc. supernatant (pH solubility assay; pH meas. 5.75, citrate 100 mM/phosphate 200 mM): 0.270 | Conc. supernatant (pH solubility assay; pH meas. 6.10, citrate 100 mM/phosphate 200 mM): 0.228 | Conc. supernatant (pH solubility assay; pH meas. 6.42, citrate 100 mM/phosphate 200 mM): 0.234 | Conc. supernatant (pH solubility assay; pH meas. 6.76, citrate 100 mM/phosphate 200 mM): 0.249 | Conc. supernatant (pH solubility assay; pH meas. 7.21, citrate 100 mM/phosphate 200 mM): 0.233 | Conc. supernatant (pH solubility assay; pH meas. 7.65, citrate 100 mM/phosphate 200 mM): 0.244 | Conc. supernatant (pH solubility assay; pH meas. 8.29, citrate 100 mM/phosphate 200 mM): 0.254 | Conc. supernatant (pH solubility assay; pH meas. 8.65, phosphate 200 mM only): 0.247 | duration of action (db/db mice; single s.c. dose): at least 24 h | acute effect on blood glucose (db/db mice; single s.c. dose 10, 30, 100 and 300 nmol/kg): lowered blood glucose in a dose-dependent manner | Plasma concentration 24 hours after dosing (db/db mice; single s.c. dose, FIG. 1B): still very high | half-life ([3]; female, C57B1/6J, mouse, plasma, iv): 6.7 h | Vd ([3]; female, C57B1/6J, mouse, plasma, iv, read-out: Volume of distribution): 0.0456 L/kg | Tmax [3, 4]: 4 h | half-life [3, 4]: 11.5 h | clearance ([3]; mice, i.v., Compound 1 dose 99 nmol/kg, Compound 5 dose 135 nmol/kg): 4.69 mL/h/kg | Volume of distribution ([3]; mice, s.c., Compound 1 dose 323 nmol/kg, Compound 5 dose 62 nmol/kg): 0.1592 L/kg
